Test results published in ChEMBL document CHEMBL2311316, “Synthesis and biological evaluation of ¹⁸F labeled fluoro-oligo-ethoxylated 4-benzylpiperazine derivatives for sigma-1 receptor imaging” (Bioorg Med Chem, 2013).
pKi: −log10 of the molar value.

What was measured:
[1] = Displacement of [3H]ditolyguanidine from sigma2 receptor in rat liver membranes; format: cell membranes, Membrane
Rattus norvegicus = organism: Rattus norvegicus; test: Selectivity index, ratio of Ki for sigma2 receptor in rat liver membranes to Ki for sigma1 receptor in rat brain membranes; format: cell membranes
[2] = molecular target: Sigma non-opioid intracellular receptor 1 (Rattus norvegicus, UniProt Q9R0C9); test: Displacement of (+)-[3H]pentazocine from sigma1 receptor in rat brain membranes; format: cell membranes
Sequence of Sigma non-opioid intracellular receptor 1 (Q9R0C9 whole entry): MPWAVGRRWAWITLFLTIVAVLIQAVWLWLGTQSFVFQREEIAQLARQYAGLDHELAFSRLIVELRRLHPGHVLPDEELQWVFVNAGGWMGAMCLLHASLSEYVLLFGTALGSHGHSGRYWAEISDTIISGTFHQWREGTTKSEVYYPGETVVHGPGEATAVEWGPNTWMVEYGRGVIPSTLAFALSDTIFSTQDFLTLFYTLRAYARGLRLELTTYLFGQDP

[3] = molecular target: T1, Vesicular acetylcholine transporter (Homo sapiens, UniProt Q16572); test: Binding affinity to VAChT (unknown origin)
T1 sequence (Q16572 whole entry): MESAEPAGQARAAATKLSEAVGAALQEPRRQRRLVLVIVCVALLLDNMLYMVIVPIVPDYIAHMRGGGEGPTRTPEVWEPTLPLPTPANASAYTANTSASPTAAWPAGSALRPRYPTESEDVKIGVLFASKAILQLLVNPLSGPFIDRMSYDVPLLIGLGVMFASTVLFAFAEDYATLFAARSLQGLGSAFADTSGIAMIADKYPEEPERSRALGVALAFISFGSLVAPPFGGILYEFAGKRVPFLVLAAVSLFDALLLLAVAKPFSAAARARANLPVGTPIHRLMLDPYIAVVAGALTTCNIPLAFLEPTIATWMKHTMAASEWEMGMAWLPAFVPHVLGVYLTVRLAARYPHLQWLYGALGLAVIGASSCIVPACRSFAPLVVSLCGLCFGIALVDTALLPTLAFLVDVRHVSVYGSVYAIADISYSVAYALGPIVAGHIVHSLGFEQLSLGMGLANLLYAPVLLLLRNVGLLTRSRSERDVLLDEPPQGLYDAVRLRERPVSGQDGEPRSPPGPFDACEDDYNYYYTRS

Brain = test: Specific drug uptake in ICR mouse brain at 4 uCi, iv measured 60 mins post dose; format: ADME, organism-based; conditions: in vivo, 1 h

Row | Compound | pKi [1] | Ratio Ki (Rattus norvegicus) | pKi [2] | pKi [3] | Drug uptake (Brain) [%]
1 | FCCOCCOCCOc1ccc(CN2CCN(Cc3ccc4c(c3)OCO4)CC2)cc1 | 5.85 | 2.81 | 6.30 | – | –
2 | [17F]CCC1OC2(CCN(Cc3ccccc3)CC2)c2ccccc21 (configuration not stated) [[18F]FLUSPIDINE] | – | – | – | 6.68 | 62
3 | FCCOc1ccc(CN2CCN(Cc3ccc4c(c3)OCO4)CC2)cc1 | 6.54 | 157 | 8.73 | – | –
4 | FCCOCCOc1ccc(CN2CCN(Cc3ccc4c(c3)OCO4)CC2)cc1 | 6.18 | 16.4 | 7.39 | – | –
5 | O=C(CCCN1CCC(O)(c2ccc(Cl)cc2)CC1)c1ccc(F)cc1 [HALOPERIDOL] | 7.68 | – | – | – | –
